In EP4745135A1 (Gluetacs Therapeutics (Shanghai) Co., Ltd., priority 2023, dated 2025):

Legend:
[1] = molecular target: T1, human Cereblon WT GST-tagged protein (Homo sapiens, UniProt Q96SW2); experiment: CRBN-binding affinity, HTRF (CEREBLON BINDING kit); conditions: for inhibition at 0.5 µM: read-out: Inhibition Rate at 0.5 µM (%); for inhibition at 2 µM: read-out: Inhibition Rate at 2 µM (%)
T1 construct: purchased CISBIO 64BDCRBNPEH

WEE1 = molecular target: T2, WEE1 (Homo sapiens, UniProt P30291+Q96SW2); experiment: Western blot, degradation of substrate protein in hPBMCs; type: cell-based
T2 construct: effects of the compounds of the present disclosure on the expression of target proteins in cells; endogenous in cells; host or cells: human PBMCs (Milecell Biotechnologies)
T2 sequence (P30291 whole entry): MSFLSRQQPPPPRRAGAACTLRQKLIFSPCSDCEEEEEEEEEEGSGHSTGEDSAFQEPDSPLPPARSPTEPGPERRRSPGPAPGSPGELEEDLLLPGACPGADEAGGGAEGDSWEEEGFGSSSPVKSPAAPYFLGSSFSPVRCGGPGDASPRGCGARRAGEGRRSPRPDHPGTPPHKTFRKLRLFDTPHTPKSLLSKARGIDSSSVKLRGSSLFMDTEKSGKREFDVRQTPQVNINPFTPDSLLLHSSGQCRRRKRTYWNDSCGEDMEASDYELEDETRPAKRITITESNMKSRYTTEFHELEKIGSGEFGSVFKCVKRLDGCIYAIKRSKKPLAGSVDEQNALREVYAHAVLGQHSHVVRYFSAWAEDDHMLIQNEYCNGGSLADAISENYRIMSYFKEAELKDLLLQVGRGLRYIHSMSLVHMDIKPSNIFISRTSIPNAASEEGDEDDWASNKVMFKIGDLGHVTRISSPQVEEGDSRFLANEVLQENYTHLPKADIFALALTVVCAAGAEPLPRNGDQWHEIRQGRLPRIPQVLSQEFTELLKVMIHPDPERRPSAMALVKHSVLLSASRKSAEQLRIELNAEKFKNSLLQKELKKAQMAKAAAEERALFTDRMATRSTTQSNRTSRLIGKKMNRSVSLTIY
T2 sequence (Q96SW2 whole entry): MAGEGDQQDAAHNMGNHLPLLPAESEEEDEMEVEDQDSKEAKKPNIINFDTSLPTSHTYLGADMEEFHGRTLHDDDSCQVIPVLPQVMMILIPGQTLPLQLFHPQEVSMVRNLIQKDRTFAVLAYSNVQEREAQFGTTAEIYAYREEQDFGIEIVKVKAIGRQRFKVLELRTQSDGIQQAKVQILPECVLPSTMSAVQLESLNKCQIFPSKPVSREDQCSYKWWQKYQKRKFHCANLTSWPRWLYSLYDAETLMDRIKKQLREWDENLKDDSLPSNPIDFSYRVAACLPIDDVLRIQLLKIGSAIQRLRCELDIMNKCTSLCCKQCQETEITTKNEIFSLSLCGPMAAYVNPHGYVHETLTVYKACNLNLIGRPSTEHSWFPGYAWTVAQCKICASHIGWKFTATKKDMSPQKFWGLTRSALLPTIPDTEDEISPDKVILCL
T2 sequence (Q16531 whole entry partner): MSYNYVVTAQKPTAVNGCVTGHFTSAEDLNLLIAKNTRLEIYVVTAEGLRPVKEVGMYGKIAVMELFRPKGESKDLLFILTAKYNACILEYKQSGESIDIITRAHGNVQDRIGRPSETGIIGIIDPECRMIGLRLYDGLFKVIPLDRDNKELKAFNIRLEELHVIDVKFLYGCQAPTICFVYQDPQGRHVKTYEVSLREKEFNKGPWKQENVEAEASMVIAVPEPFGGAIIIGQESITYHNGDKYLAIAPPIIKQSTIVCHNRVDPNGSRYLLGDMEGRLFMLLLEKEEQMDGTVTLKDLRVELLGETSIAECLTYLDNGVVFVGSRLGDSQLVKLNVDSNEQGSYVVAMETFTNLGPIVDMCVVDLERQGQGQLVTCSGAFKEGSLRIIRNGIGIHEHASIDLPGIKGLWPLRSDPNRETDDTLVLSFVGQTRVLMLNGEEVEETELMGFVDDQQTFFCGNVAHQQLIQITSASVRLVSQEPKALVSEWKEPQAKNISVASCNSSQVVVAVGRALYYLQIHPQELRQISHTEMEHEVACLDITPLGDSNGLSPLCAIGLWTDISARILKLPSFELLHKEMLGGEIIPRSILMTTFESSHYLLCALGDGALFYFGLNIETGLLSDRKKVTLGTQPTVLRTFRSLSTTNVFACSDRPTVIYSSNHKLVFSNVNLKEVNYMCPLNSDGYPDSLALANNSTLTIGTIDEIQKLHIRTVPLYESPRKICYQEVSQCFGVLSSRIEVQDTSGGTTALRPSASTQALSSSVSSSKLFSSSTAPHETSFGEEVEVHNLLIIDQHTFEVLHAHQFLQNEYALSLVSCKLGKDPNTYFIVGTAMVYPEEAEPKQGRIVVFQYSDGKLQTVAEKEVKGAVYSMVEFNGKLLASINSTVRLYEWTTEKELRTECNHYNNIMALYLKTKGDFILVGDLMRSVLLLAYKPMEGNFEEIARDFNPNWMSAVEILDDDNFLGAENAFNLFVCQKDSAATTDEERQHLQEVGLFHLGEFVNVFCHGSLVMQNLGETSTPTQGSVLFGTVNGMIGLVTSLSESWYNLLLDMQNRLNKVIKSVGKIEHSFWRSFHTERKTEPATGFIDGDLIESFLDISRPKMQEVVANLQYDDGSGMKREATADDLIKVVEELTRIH

CK1α = molecular target: T3, CK1α (Homo sapiens, UniProt P48729+Q96SW2); experiment: as above; type: cell-based
T3 construct: effects of the compounds of the present disclosure on the expression of target proteins in cells; endogenous in cells; host or cells: human PBMCs (Milecell Biotechnologies)
T3 sequence (P48729 whole entry): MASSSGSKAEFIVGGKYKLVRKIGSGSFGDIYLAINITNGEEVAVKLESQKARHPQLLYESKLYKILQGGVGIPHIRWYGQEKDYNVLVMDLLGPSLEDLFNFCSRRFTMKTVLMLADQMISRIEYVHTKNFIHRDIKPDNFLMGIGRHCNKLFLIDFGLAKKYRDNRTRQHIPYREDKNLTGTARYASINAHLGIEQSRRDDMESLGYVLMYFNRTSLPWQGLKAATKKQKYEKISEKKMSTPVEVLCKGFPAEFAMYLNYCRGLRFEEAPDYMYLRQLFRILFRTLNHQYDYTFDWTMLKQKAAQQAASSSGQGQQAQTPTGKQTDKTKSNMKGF
T3 sequence (Q96SW2 whole entry): as the sequence (Q96SW2 whole entry) above
T3 sequence (Q16531 whole entry partner): as the sequence (Q16531 whole entry partner) above

IKZF1 = molecular target: T4, IKZF1 (Homo sapiens, UniProt Q13422+Q96SW2); experiment: as above; type: cell-based
T4 construct: effects of the compounds of the present disclosure on the expression of target proteins in cells; endogenous in cells; host or cells: human PBMCs (Milecell Biotechnologies)
T4 sequence (Q13422 whole entry): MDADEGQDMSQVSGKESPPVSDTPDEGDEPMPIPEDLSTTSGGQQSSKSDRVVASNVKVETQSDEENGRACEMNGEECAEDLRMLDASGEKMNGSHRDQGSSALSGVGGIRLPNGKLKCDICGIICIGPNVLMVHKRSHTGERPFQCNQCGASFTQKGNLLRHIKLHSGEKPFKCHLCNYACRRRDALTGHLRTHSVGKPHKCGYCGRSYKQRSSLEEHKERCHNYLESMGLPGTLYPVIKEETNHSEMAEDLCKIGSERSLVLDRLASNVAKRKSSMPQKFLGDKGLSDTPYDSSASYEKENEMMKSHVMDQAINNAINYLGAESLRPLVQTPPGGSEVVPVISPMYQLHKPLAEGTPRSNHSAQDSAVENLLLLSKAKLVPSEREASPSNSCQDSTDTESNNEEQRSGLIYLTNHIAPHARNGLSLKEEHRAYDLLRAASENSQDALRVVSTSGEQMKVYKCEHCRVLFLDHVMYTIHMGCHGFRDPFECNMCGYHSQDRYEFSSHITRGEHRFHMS
T4 sequence (Q96SW2 whole entry): as the sequence (Q96SW2 whole entry) above
T4 sequence (Q16531 whole entry partner): as the sequence (Q16531 whole entry partner) above

IKZF2 = molecular target: T5, IKZF2 (Homo sapiens, UniProt Q96SW2+Q9UKS7); experiment: as above; type: cell-based
T5 construct: effects of the compounds of the present disclosure on the expression of target proteins in cells; endogenous in cells; host or cells: human PBMCs (Milecell Biotechnologies)
T5 sequence (Q9UKS7 whole entry): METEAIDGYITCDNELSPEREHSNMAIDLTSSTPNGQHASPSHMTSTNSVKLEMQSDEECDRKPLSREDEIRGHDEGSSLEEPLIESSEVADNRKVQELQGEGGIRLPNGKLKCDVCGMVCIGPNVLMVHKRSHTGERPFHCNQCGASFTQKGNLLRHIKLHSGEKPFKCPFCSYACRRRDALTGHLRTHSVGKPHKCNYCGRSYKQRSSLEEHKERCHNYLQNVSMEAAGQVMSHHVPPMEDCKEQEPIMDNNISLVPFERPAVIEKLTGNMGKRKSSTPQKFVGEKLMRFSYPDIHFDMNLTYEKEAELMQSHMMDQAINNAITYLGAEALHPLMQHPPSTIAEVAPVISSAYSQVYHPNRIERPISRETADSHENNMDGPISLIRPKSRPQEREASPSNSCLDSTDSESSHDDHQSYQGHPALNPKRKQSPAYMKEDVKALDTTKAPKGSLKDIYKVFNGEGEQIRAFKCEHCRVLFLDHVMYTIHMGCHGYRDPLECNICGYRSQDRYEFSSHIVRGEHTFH
T5 sequence (Q96SW2 whole entry): as the sequence (Q96SW2 whole entry) above
T5 sequence (Q16531 whole entry partner): as the sequence (Q16531 whole entry partner) above

IKZF3 = molecular target: T6, IKZF3 (Homo sapiens, UniProt Q96SW2+Q9UKT9); experiment: as above; type: cell-based
T6 construct: effects of the compounds of the present disclosure on the expression of target proteins in cells; endogenous in cells; host or cells: human PBMCs (Milecell Biotechnologies)
T6 sequence (Q9UKT9 whole entry): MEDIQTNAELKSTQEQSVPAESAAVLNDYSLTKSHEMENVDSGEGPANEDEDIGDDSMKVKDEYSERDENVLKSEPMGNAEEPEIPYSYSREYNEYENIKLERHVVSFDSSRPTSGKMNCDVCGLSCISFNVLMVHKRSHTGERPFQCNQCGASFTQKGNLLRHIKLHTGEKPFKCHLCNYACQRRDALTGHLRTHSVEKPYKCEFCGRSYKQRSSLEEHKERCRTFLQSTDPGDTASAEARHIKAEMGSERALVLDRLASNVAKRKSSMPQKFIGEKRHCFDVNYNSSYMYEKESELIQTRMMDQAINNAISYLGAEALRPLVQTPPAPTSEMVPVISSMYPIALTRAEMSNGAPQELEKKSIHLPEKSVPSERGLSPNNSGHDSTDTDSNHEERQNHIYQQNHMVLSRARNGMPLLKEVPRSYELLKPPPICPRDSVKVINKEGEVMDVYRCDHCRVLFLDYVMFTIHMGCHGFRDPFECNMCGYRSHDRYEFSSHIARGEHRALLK
T6 sequence (Q96SW2 whole entry): as the sequence (Q96SW2 whole entry) above
T6 sequence (Q16531 whole entry partner): as the sequence (Q16531 whole entry partner) above

GSPT1 = experiment: as above; type: cell-based, Human
[2] = 24 hours treatment, compounds at 50 nM and 500 nM (concentration behind the class not stated)
[3] = Western blot, 24 hours of compound treatment, compounds tested at 50 nM and 500 nM (concentration for the table not stated)

T1 sequence (Q96SW2 whole entry): as the sequence (Q96SW2 whole entry) above

Row | inhibition at 0.5 µM [1] [%] | inhibition at 2 µM [1] [%] | SMILES | Wee1 substrate protein remaining % (WEE1; [2]) | CK1α substrate protein remaining % (CK1α; [2]) | IKZF 1 substrate protein remaining % (IKZF1; [2]) | IKZF2 substrate protein remaining % (IKZF2; [2]) | IKZF3 substrate protein remaining % (IKZF3; [2]) | GSPT1 substrate protein remaining % (GSPT1; [2]) | Wee1 substrate protein remaining % (WEE1; [3]) | CK1α substrate protein remaining % (CK1α; [3]) | IKZF 1 substrate protein remaining % (IKZF1; [3]) | IKZF2 substrate protein remaining % (IKZF2; [3]) | IKZF3 substrate protein remaining % (IKZF3; [3]) | GSPT1 substrate protein remaining % (GSPT1; [3])
1 | 53 to 60 | 80 to 100 | Cc1nc(C2CCN(Cc3ccc4c(c3)CN(C3CCC(=O)NC3=O)C4=S)CC2)c2c3c(sc2n1)CCCC3 (stereo not drawn) [GT-09310, 3-(5-((4-(2-methyl-5,6,7,8-tetrahydrobenzo[4,5]thieno[2,3-d]pyrimidin-4-yl)piperidin-1-yl)methyl)-1-thioxoisoindolin-2-yl)piperidine-2,6-dione] | B (80%< substrate protein remaining %≤ 100%) | B (80%< substrate protein remaining %≤ 100%) | B (80%< substrate protein remaining %≤ 100%) | B (80%< substrate protein remaining %≤ 100%) | A (0% ≤ substrate protein remaining % ≤ 80%) | A (0% ≤ substrate protein remaining % ≤ 80%) | – | – | – | – | – | –
2 | 30 to 40 | 53 to 60 | O=C1CCC(N2Cc3c(CN4CCC(c5cccc(Cl)c5Cl)CC4)cccc3C2=S)C(=O)N1 (stereo not drawn) [GT-08269, 3-(4-((4-(2,3-dichlorophenyl)piperidin-1-yl)methyl)-1-thioxoisoindolin-2-yl)piperidine-2,6-dione] | – | – | – | – | – | – | A (0% ≤ substrate protein remaining % ≤ 80%) | B (80%< substrate protein remaining %≤ 100%) | B (80%< substrate protein remaining %≤ 100%) | B (80%< substrate protein remaining %≤ 100%) | B (80%< substrate protein remaining %≤ 100%) | A (0% ≤ substrate protein remaining % ≤ 80%)
3 | 60 to 80 | 80 to 100 | O=C1CCC(N2Cc3c(CN4CCC(c5ccnc(F)c5F)CC4)cccc3C2=S)C(=O)N1 (stereo not drawn) [GT-08459, 3-(4-((4-(2,3-difluoropyridin-4-yl)piperidin-1-yl)methyl)-1-thioxoisoindolin-2-yl)piperidine-2,6-dione] | – | – | – | – | – | – | A (0% ≤ substrate protein remaining % ≤ 80%) | B (80%< substrate protein remaining %≤ 100%) | B (80%< substrate protein remaining %≤ 100%) | B (80%< substrate protein remaining %≤ 100%) | B (80%< substrate protein remaining %≤ 100%) | B (80%< substrate protein remaining %≤ 100%)
4 | 60 to 80 | 80 to 100 | O=C1CCC(N2Cc3c(CN4CCN(c5nc(N6CCOCC6)nc6c5SCC6)CC4)cccc3C2=S)C(=O)N1 (stereo not drawn) [GT-08968, 3-(4-((4-(2-morpholino-6,7-dihydrothieno[3,2-d]pyrimidin-4-yl)piperazin-1-yl)methyl)-1-thioxoisoindolin-2-yl)piperidine-2,6-dione] | A (0% ≤ substrate protein remaining % ≤ 80%) | B (80%< substrate protein remaining %≤ 100%) | B (80%< substrate protein remaining %≤ 100%) | B (80%< substrate protein remaining %≤ 100%) | B (80%< substrate protein remaining %≤ 100%) | B (80%< substrate protein remaining %≤ 100%) | – | – | – | – | – | –
5 | 40 to 53 | 80 to 100 | O=C1CCC(N2Cc3c(CN4C[C@H]5C[C@@H]4CN5C(c4ccccc4)c4ccccc4)cccc3C2=S)C(=O)N1 (stereo partly drawn) [GT-08208, 3-(4-(((1R,4R)-5-benzhydryl-2,5-diazabicyclo[2.2.1]heptan-2-yl)methyl)-1-thioxoisoindolin-2-yl)piperidine-2,6-dione] | – | – | – | – | – | – | A (0% ≤ substrate protein remaining % ≤ 80%) | B (80%< substrate protein remaining %≤ 100%) | B (80%< substrate protein remaining %≤ 100%) | A (0% ≤ substrate protein remaining % ≤ 80%) | B (80%< substrate protein remaining %≤ 100%) | A (0% ≤ substrate protein remaining % ≤ 80%)
6 | 60 to 80 | 80 to 100 | O=C1CCC(N2Cc3c(CN4CC=C(c5cccc6cnccc56)CC4)cccc3C2=S)C(=O)N1 (stereo not drawn) [GT-08634, 3-(4-((4-(isoquinolin-5-yl)-3,6-dihydropyridin-1(2H)-yl)methyl)-1-thioxoisoindolin-2-yl)piperidine-2,6-dione] | – | – | – | – | – | – | A (0% ≤ substrate protein remaining % ≤ 80%) | B (80%< substrate protein remaining %≤ 100%) | B (80%< substrate protein remaining %≤ 100%) | B (80%< substrate protein remaining %≤ 100%) | B (80%< substrate protein remaining %≤ 100%) | B (80%< substrate protein remaining %≤ 100%)
7 | 60 to 80 | 80 to 100 | O=C1CCC(N2Cc3c(CN4CCN(c5ncc6ccsc6n5)CC4)cccc3C2=S)C(=O)N1 (stereo not drawn) [GT-08927, 3-(4-((4-(thieno[2,3-d]pyrimidin-2-yl)piperazin-1-yl)methyl)-1-thioxoisoindolin-2-yl)piperidine-2,6-dione] | A (0% ≤ substrate protein remaining % ≤ 80%) | B (80%< substrate protein remaining %≤ 100%) | B (80%< substrate protein remaining %≤ 100%) | A (0% ≤ substrate protein remaining % ≤ 80%) | A (0% ≤ substrate protein remaining % ≤ 80%) | B (80%< substrate protein remaining %≤ 100%) | – | – | – | – | – | –
8 | 40 to 53 | 60 to 80 | O=C1CCC(N2Cc3c(CN4CCN(c5ccc(F)cc5F)CC4)cccc3C2=S)C(=O)N1 (stereo not drawn) [GT-08503, 3-(4-((4-(2,4-difluorophenyl)piperazin-1-yl)methyl)-1-thioxoisoindolin-2-yl)piperidine-2,6-dione] | – | – | – | – | – | – | A (0% ≤ substrate protein remaining % ≤ 80%) | B (80%< substrate protein remaining %≤ 100%) | B (80%< substrate protein remaining %≤ 100%) | B (80%< substrate protein remaining %≤ 100%) | B (80%< substrate protein remaining %≤ 100%) | A (0% ≤ substrate protein remaining % ≤ 80%)
9 | 40 to 53 | 60 to 80 | O=C1CCC(N2Cc3c(CN4CCC(c5ccsc5)CC4)cccc3C2=S)C(=O)N1 (stereo not drawn) [GT-08315, 3-(4-((4-(thiophen-3-yl)piperidin-1-yl)methyl)-1-thioxoisoindolin-2-yl)piperidine-2,6-dione] | A (0% ≤ substrate protein remaining % ≤ 80%) | B (80%< substrate protein remaining %≤ 100%) | B (80%< substrate protein remaining %≤ 100%) | B (80%< substrate protein remaining %≤ 100%) | B (80%< substrate protein remaining %≤ 100%) | B (80%< substrate protein remaining %≤ 100%) | – | – | – | – | – | –
